Biological target: T1, human M2 receptor (Homo sapiens, UniProt P08172)
T1 sequence (P08172 1-466): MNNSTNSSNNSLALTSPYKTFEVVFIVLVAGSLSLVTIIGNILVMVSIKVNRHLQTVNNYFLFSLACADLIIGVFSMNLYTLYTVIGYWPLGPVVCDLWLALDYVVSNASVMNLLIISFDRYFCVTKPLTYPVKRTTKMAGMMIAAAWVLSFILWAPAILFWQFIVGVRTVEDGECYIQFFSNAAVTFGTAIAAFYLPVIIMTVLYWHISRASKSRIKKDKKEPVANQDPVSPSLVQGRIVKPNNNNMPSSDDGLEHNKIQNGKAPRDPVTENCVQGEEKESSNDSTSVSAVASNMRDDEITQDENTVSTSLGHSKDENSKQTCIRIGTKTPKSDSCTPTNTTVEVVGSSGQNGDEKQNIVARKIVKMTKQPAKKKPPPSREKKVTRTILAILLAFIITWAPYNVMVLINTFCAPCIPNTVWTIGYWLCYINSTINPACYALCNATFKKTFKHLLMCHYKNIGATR
Settings: Receptor activity EC50, M2-GIRK1/4 activation test, acetylcholine at EC20; allosteric potency; in some cases mean values from two or more determinations

| Compound | EC50 |
| --- | --- |
| CN(CCF)c1ccc2c(=O)c(C(=O)NC3(C(F)(F)F)CC3)cn(-c3ccc(F)cc3F)c2n1 [Example 109, 1-(2,4-Difluorophenyl)-7-[(2-fluoroethyl)(methyl)amino]-4-oxo-N-[1-(trifluoromethyl)cyclopropyl]-1,4-dihydro-1,8-naphthyridine-3-carboxamide] | 187 nM |
| CN(CCF)c1ccc2c(=O)c(C(=O)NC34CCC(F)(CC3)CC4)cn(-c3ccc(F)cc3F)c2n1 [Example 110, 1-(2,4-Difluorophenyl)-N-(4-fluorobicyclo[2.2.2]oct-1-yl)-7-[(2-fluoroethyl)(methyl)amino]-4-oxo-1,4-dihydro-1,8-naphthyridine-3-carboxamide] | 62 nM |
| CN(CC(F)F)c1ccc2c(=O)c(C(=O)NC34CC5CC(CC(C5)C3)C4)cn(-c3ccc(F)cc3F)c2n1 [Example 112, 7-[(2,2-Difluoroethyl)(methyl)amino]-1-(2,4-difluorophenyl)-4-oxo-N-(tricyclo[3.3.1.1^3,7]dec-1-yl)-1,4-dihydro-1,8-naphthyridine-3-carboxamide] | 29 nM |
| CN(CC(F)F)c1ccc2c(=O)c(C(=O)NC(C(F)(F)F)C(F)(F)F)cn(-c3ccc(F)cc3F)c2n1 [Example 115, 7-[(2,2-Difluoroethyl)(methyl)amino]-1-(2,4-difluorophenyl)-N-[1,1,1,3,3,3-hexafluoropropan-2-yl)-4-oxo-1,4-dihydro-1,8-naphthyridine-3-carboxamide] | 73 nM |
| O=C(NC12CC3CC(CC(C3)C1)C2)c1cn(-c2ccc(F)cc2F)c2nc(N3CCC(O)(CO)CC3)ccc2c1=O [Example 116, 1-(2,4-Difluorophenyl)-7-[4-hydroxy-4-(hydroxymethyl)piperidin-1-yl]-4-oxo-N-(tricyclo[3.3.1.1^3,7]dec-1-yl)-1,4-dihydro-1,8-naphthyridine-3-carboxamide] | 59 nM |
| O=C(NC12CC3CC(CC(C3)C1)C2)c1cn(-c2ccc(F)cc2F)c2nc(N3CCOC[C@H]3CO)ccc2c1=O [Example 117, 1-(2,4-Difluorophenyl)-7-[(3R)-3-(hydroxymethyl)morpholin-4-yl]-4-oxo-N-(tricyclo[3.3.1.1^3,7]dec-1-yl)-1,4-dihydro-1,8-naphthyridine-3-carboxamide] | 89 nM |
| O=C(NC12CC3CC(CC(C3)C1)C2)c1cn(-c2ccc(F)cc2F)c2nc(NCC(F)F)ccc2c1=O [Example 120, 7-[(2,2-Difluoroethyl)amino]-1-(2,4-difluorophenyl)-4-oxo-N-(tricyclo[3.3.1.1^3,7]dec-1-yl)-1,4-dihydro-1,8-naphthyridine-3-carboxamide] | 62 nM |
| CCCC(NC(=O)c1cn(-c2ccc(F)cc2F)c2nc(NCC(F)F)ccc2c1=O)C(F)(F)F (stereo not shown) [Example 124, 7-[(2,2-Difluoroethyl)amino]-1-(2,4-difluorophenyl)-4-oxo-N-[1,1,1-trifluoropentan-2-yl]-1,4-dihydro-1,8-naphthyridine-3-carboxamide] | 155 nM |
| O=C(NC(C(F)(F)F)C(F)(F)F)c1cn(-c2ccc(F)cc2F)c2nc(NCC(F)F)ccc2c1=O [Example 126, 7-[(2,2-Difluoroethyl)amino]-1-(2,4-difluorophenyl)-N-(1,1,1,3,3,3-hexafluoropropan-2-yl)-4-oxo-1,4-dihydro-1,8-naphthyridine-3-carboxamide] | 180 nM |
| O=C(NC12CC3CC(CC(C3)C1)C2)c1cn(-c2ccc(F)cc2F)c2nc(N3CCSC3)ccc2c1=O [Example 129, 1-(2,4-Difluorophenyl)-4-oxo-7-(1,3-thiazolidin-3-yl)-N-(tricyclo[3.3.1.1^3,7]dec-1-yl)-1,4-dihydro-1,8-naphthyridine-3-carboxamide] | 45 nM |
| O=C(NC12CC3CC(CC(C3)C1)C2)c1cn(-c2ccc(F)cc2F)c2nc(N3CCS(=O)(=O)C3)ccc2c1=O [Example 130, 1-(2,4-Difluorophenyl)-7-(1,1-dioxido-1,3-thiazolidin-3-yl)-4-oxo-N-(tricyclo[3.3.1.1^3,7]dec-1-yl)-1,4-dihydro-1,8-naphthyridine-3-carboxamide] | 113 nM |
| O=C(NC12CC3CC(CC(C3)C1)C2)c1cn(-c2ccc(F)cc2F)c2nc(N3CC[S+]([O-])C3)ccc2c1=O (stereo not shown) [Example 131, 1-(2,4-Difluorophenyl)-7-(1-oxido-1,3-thiazolidin-3-yl)-4-oxo-N-(tricyclo[3.3.1.1^3,7]dec-1-yl)-1,4-dihydro-1,8-naphthyridine-3-carboxamide] | 157 nM |
| CC(C)C[C@@H](NC(=O)c1cn(-c2ccc(F)cc2F)c2nc(N(C)C)ccc2c1=O)C(F)(F)F [Example 133, 1-(2,4-Difluorophenyl)-7-(dimethylamino)-4-oxo-N-[(2R)-1,1,1-trifluoro-4-methylpentan-2-yl]-1,4-dihydro-1,8-naphthyridine-3-carboxamide] | 19 nM |
| CC(C)[C@H](NC(=O)c1cn(-c2ccc(F)cc2F)c2nc(N(C)C)ccc2c1=O)C(F)(F)F [Example 134, 1-(2,4-Difluorophenyl)-7-(dimethylamino)-4-oxo-N-[(2S)-1,1,1-trifluoro-3-methylbutan-2-yl]-1,4-dihydro-1,8-naphthyridine-3-carboxamide] | 32 nM |
| O=C(NC12CC3CC(CC(C3)C1)C2)c1cn(-c2ccc(F)cc2F)c2nc(N3CCOCC3)ccc2c1=O [Example 136, 1-(2,4-Difluorophenyl)-7-(morpholin-4-yl)-4-oxo-N-(tricyclo[3.3.1.1^3,7]dec-1-yl)-1,4-dihydro-1,8-naphthyridine-3-carboxamide] | 24 nM |
| CC(C)C[C@H](NC(=O)c1cn(-c2ccc(F)cc2F)c2nc(N(C)C)ccc2c1=O)C(F)(F)F [Example 137, 1-(2,4-Difluorophenyl)-7-(dimethylamino)-4-oxo-N-[(2S)-1,1,1-trifluoro-4-methylpentan-2-yl]-1,4-dihydro-1,8-naphthyridine-3-carboxamide] | 16 nM |
| CN(C)c1ccc2c(=O)c(C(=O)NC(C(F)(F)F)C(F)(F)F)cn(-c3ccc(F)cc3F)c2n1 [Example 149, 1-(2,4-Difluorophenyl)-7-(dimethylamino)-N-(1,1,1,3,3,3-hexafluoropropan-2-yl)-4-oxo-1,4-dihydro-1,8-naphthyridine-3-carboxamide] | 85 nM |
| CN(C)c1ccc2c(=O)c(C(=O)NC3(C(F)(F)F)CCCC3)cn(-c3ccc(F)cc3F)c2n1 [Example 151, 1-(2,4-Difluorophenyl)-7-(dimethylamino)-4-oxo-N-[1-(trifluoromethyl)cyclopentyl]-1,4-dihydro-1,8-naphthyridine-3-carboxamide] | 23 nM |
| CN(C)c1ccc2c(=O)c(C(=O)NC34CCC(CC3)CC4)cn(-c3ccc(F)cc3Cl)c2n1 [Example 152, N-(Bicyclo[2.2.2]oct-1-yl)-1-(2-chloro-4-fluorophenyl)-7-(dimethylamino)-4-oxo-1,4-dihydro-1,8-naphthyridine-3-carboxamide] | 10 nM |
| CN(C)c1ccc2c(=O)c(C(=O)NC34CC5CC(C3)CC(C(F)(F)F)(C5)C4)cn(-c3ccc(F)cc3Cl)c2n1 [Example 153, 1-(2-Chloro-4-fluorophenyl)-7-(dimethylamino)-4-oxo-N-[3-(trifluoromethyl)tricyclo[3.3.1.1^3,7]dec-1-yl]-1,4-dihydro-1,8-naphthyridine-3-carboxamide] | 104 nM |
| CN(C)c1ccc2c(=O)c(C(=O)NC3CC34CCCCC4)cn(-c3ccc(F)cc3Cl)c2n1 (stereo not shown) [Example 154, 1-(2-Chloro-4-fluorophenyl)-7-(dimethylamino)-4-oxo-N-(spiro[2.5]oct-1-yl)-1,4-dihydro-1,8-naphthyridine-3-carboxamide] | 158 nM |
| CN(C)c1ccc2c(=O)c(C(=O)NC(C)(C)C)cn(-c3ccc(F)cc3Cl)c2n1 [Example 155, N-tert-Butyl-1-(2-chloro-4-fluorophenyl)-7-(dimethylamino)-4-oxo-1,4-dihydro-1,8-naphthyridine-3-carboxamide] | 173 nM |
| CN(C)c1ccc2c(=O)c(C(=O)NC3(C)CCCCC3)cn(-c3ccc(F)cc3Cl)c2n1 [Example 156, 1-(2-Chloro-4-fluorophenyl)-7-(dimethylamino)-N-(1-methylcyclohexyl)-4-oxo-1,4-dihydro-1,8-naphthyridine-3-carboxamide] | 86 nM |
| CCC12CC3CC(C1)CC(NC(=O)c1cn(-c4ccc(F)cc4Cl)c4nc(N(C)C)ccc4c1=O)(C3)C2 [Example 157, 1-(2-Chloro-4-fluorophenyl)-7-(dimethylamino)-N-(3-ethyltricyclo[3.3.1.1^3,7]dec-1-yl)-4-oxo-1,4-dihydro-1,8-naphthyridine-3-carboxamide] | 67 nM |
| CC(C)Nc1ccc2c(=O)c(C(=O)NC34CC5CC(CC(C5)C3)C4)cn(-c3ccc(F)cc3F)c2n1 [Example 158, 1-(2,4-Difluorophenyl)-4-oxo-7-(propan-2-ylamino)-N-(tricyclo[3.3.1.1^3,7]dec-1-yl)-1,4-dihydro-1,8-naphthyridine-3-carboxamide] | 184 nM |
| CNc1ccc2c(=O)c(C(=O)NC34CC5CC(C3)CC(C(F)(F)F)(C5)C4)cn(-c3ccc(F)cc3F)c2n1 [Example 160, 1-(2,4-Difluorophenyl)-7-(methylamino)-4-oxo-N-[3-(trifluoromethyl)tricyclo[3.3.1.1^3,7]dec-1-yl]-1,4-dihydro-1,8-naphthyridine-3-carboxamide] | 85 nM |
| CNc1ccc2c(=O)c(C(=O)NC34CC5CC(C3)C(F)(F)C(C5)C4)cn(-c3ccc(F)cc3F)c2n1 [Example 161] | 137 nM |
| CNc1ccc2c(=O)c(C(=O)NC34CCC(CC3)CC4)cn(-c3ccc(F)cc3F)c2n1 [Example 162] | 38 nM |

From patent US20190367516A1 (Bayer Pharma Aktiengesellschaft, priority 2015, published 2019)
